The results in this text go back to patent publication US9273364B2 (Kyoto University, priority 2010, dated 2016).

Counter-ions that a name gives are not always drawn. Like-named read-outs stand apart in the source and are kept apart here.

In this data set the test system is alternative splicing of a specific gene (GFP/RFP reporter). Briefly: Compound screen with GFP/RFP alternative splicing reporter. It is filed as cell-based. An excerpt:
Strategy of a method for testing whether or not a compound to be tested affects an alternative splicing of a specific gene in a mammalian multicelluar organism is shown in FIG. 14.
The reporter proteins used for the method are GFP and FRP.

The mark [1] stands for this setting: cell count after compound at final conc., Ctrl number of cells 4303-5627.

`CCCCC(C)(O)C/C=C/[C@H]1[C@H](O)CC(=O)[C@@H]1CCCCCCC(=O)OC` (mixture of isomers) [Misoprostol] yielded a Number of cells (50 ng/mL) of 3052.
Compound `Cc1cn([C@H]2C[C@H](N=[N+]=[N-])[C@@H](CO)O2)c(=O)[nH]c1=O` (racemic) [3′-azido-3′-deoxythymidine] displayed a Number of cells of 2356.
For the setting “50 ng/mL”, `O=c1[nH]cc(F)c(=O)[nH]1` (racemic) [5-fluorouracil] registered a Number of cells of 433.
`C=C1/C(=C\C=C2/CCC[C@]3(C)[C@@H]([C@H](C)CCCC(C)C)CC[C@@H]23)C[C@@H](O)C[C@@H]1O` (racemic) [Alfacalcidol] had a Number of cells of 861.
`CC(C)CN(C[C@@H](O)[C@H](Cc1ccccc1)NC(=O)O[C@H]1CCOC1)S(=O)(=O)c1ccc(N)cc1` (racemic) [Amprenavir] returned a Number of cells of 2564.
With `C[C@@H](O[C@H]1OCCN(Cc2n[nH]c(=O)[nH]2)[C@H]1c1ccc(F)cc1)c1cc(C(F)(F)F)cc(C(F)(F)F)c1` (racemic) [Aprepitant], the Number of cells stood at 2165.
In the case of `COc1ccc(CC2c3cc(OC)c(OC)cc3CC[N+]2(C)CCC(=O)OCCCCCOC(=O)CC[N+]2(C)CCc3cc(OC)c(OC)cc3C2Cc2ccc(OC)c(OC)c2)cc1OC` (racemic) [Atracurium besylate], for the setting “50 ng/mL”, the Number of cells is given as 3056.
Still for that read-out and setting: to `c1ccc(-c2ccc(C(c3ccccc3)n3ccnc3)cc2)cc1` (racemic) [Bifonazole] belongs 921; to `CC(C)C[C@H](NC(=O)[C@H](Cc1ccccc1)NC(=O)c1cnccn1)B(O)O` (racemic) [Bortezomib], 74.
Compound `COC(=O)N/N=C/c1c[n+]([O-])c2ccccc2[n+]1[O-]` (racemic) [Carbadox] showed a Number of cells under setting [1] of 2293.
In the case of `Cc1ccc(-c2cc(C(F)(F)F)nn2-c2ccc(S(N)(=O)=O)cc2)cc1` (racemic) [Celecoxib], the Number of cells amounted to 3060.
In the case of `O=C(O)CCCc1ccc(N(CCCl)CCCl)cc1` (racemic) [Chlorambucil], under setting [1], the Number of cells turned out to be 841.
The compound `CN(C)CCC(c1ccc(Cl)cc1)c1ccccn1` (racemic) [Chlorpheniramine maleate] displayed a Number of cells of 3724.
Take `Nc1nc(Cl)nc2c1ncn2[C@@H]1O[C@H](CO)[C@@H](O)[C@@H]1F` (racemic) [Clofarabine]: under “50 ng/mL”, the Number of cells is recorded as 19.
Still for that read-out and setting: the value for `CCN(CC)CCOc1ccc(C(=C(Cl)c2ccccc2)c2ccccc2)cc1` (racemic) [Clomiphene citrate] was 95.
With `Cc1nc(C)c(Cl)c(O)c1Cl` (racemic) [Clopidol], the Number of cells under setting [1] amounted to 3230.
For the setting “50 ng/mL”, `N=c1ccn2c(n1)O[C@H]1[C@H](O)[C@@H](CO)O[C@H]12` (racemic) [Cyclocytidine HCl] showed a Number of cells of 73.
Consider `Nc1ccn([C@@H]2O[C@H](CO)[C@@H](O)[C@@H]2O)c(=O)n1` (racemic) [Cytarabine], for which the Number of cells (50 ng/mL) turned out to be 48.
The same measure, in the same setting: to `CC/C(=C(/CC)c1ccc(O)cc1)c1ccc(O)cc1` (racemic) [Diethylstilbestrol] belongs 542; to `CCN(CC)C(=S)SSC(=S)N(CC)CC` (racemic) [Disulfiram], 31.
As for `COC(=O)Nc1nc2ccc(Sc3ccccc3)cc2[nH]1` (racemic) [Fenbendazole], the Number of cells (50 ng/mL) worked out at 278.
`O=c1[nH]c(=O)n([C@H]2C[C@H](O)[C@@H](CO)O2)cc1F` (racemic) [Floxuridine] gave a Number of cells (50 ng/mL) of 142.
The compound `C[C@]12CC[C@@H]3c4ccc(O)cc4C[C@@H](CCCCCCCCC[S+]([O-])CCCC(F)(F)C(F)(F)F)[C@H]3[C@@H]1CC[C@@H]2O` (mixture of isomers) [Fulvestrant] had a Number of cells under setting [1] of 2156.
For the setting “50 ng/mL”, `Nc1ccn([C@@H]2O[C@H](CO)[C@@H](O)C2(F)F)c(=O)n1` (racemic) [Gemcitabine HCl] returned a Number of cells of 156.
`C[C@]12CCC(=O)C=C1CC[C@@H]1[C@@H]2[C@@H](O)C[C@@]2(C)[C@H]1CC[C@]2(O)C(=O)CO` (racemic) [Hydrocortisone] displayed a Number of cells of 3105.
Where the note is “50 ng/mL”, `CC(C)C(=O)c1c(C(C)C)nn2ccccc12` (racemic) [Ibudilast] had a Number of cells of 3018.
Where the note is “50 ng/mL”, `CC(=O)[C@]1(O)Cc2c(O)c3c(c(O)c2[C@@H](O[C@H]2C[C@H](N)[C@H](O)[C@H](C)O2)C1)C(=O)c1ccccc1C3=O` (racemic) [Idarubicin] gave a Number of cells of 34.
Still for that read-out and setting: the value for `O=c1[nH]c(=O)n([C@H]2C[C@H](O)[C@@H](CO)O2)cc1I` (racemic) [Idoxuridine] was 1924; that for `CC(C)Cn1cnc2c(N)nc3ccccc3c21` (racemic) [Imiquimod] was 1944.
Turning to `CC(C)NCC(O)c1ccc(O)c(O)c1.Cl` (racemic) [Isoproterenol HCl (rac)], the Number of cells is reported as 3953. For the same compound, the “GFP/RFP (Ctrl = 1)” value (reporter ratio relative to control = 1, final conc. per compound (μM, 50 ng/mL)) is recorded as 1.614.
With `CCC(C)n1ncn(-c2ccc(N3CCN(c4ccc(OCC5COC(Cn6cncn6)(c6ccc(Cl)cc6Cl)O5)cc4)CC3)cc2)c1=O` (racemic) [Itraconazole], the Number of cells (50 ng/mL) is given as 344.
Same read-out and setting: the value for `Cc1oncc1C(=O)Nc1ccc(C(F)(F)F)cc1` (racemic) [Leflunomide] was 1963.
`O=NN(CCCl)C(=O)NC1CCCCC1` (racemic) [Lomustine]: the Number of cells is reported as 1241.
In turn, `N[C@@H](Cc1ccc(N(CCCl)CCCl)cc1)C(=O)O` (racemic) [Melphalan] came in with a Number of cells under setting [1] of 483.
`C[C@H]1C[C@@H]2[C@H]([C@@H](O)C[C@@]3(C)[C@H]2CC[C@]3(O)C(=O)CO)[C@@]2(C)C=CC(=O)C=C12` (racemic) [Methylprednisolone] gave a Number of cells (50 ng/mL) of 3084.
Compound `Clc1ccc(COC(Cn2ccnc2)c2ccc(Cl)cc2Cl)c(Cl)c1` (racemic) [Miconazole] yielded a Number of cells (50 ng/mL) of 808.
In the case of `COc1c(C)c2c(c(O)c1C/C=C(\C)CCC(=O)OCCN1CCOCC1)C(=O)OC2` (racemic) [Mycophenolate mofetil], the Number of cells under setting [1] was determined as 500.
In the case of `CCc1nn(CCCN2CCN(c3cccc(Cl)c3)CC2)c(=O)n1CCOc1ccccc1` (racemic) [Nefazodone], the Number of cells is on record as 2966.
For `C#C[C@]1(O)CC[C@H]2[C@@H]3CCC4=CC(=O)CC[C@@H]4[C@H]3CC[C@@]21C` (racemic) [Norethindrone], the Number of cells was 3205.
Compound `COC(=O)Nc1nc2ccc([S+]([O-])c3ccccc3)cc2[nH]1` (racemic) [Oxfendazole] displayed a Number of cells under setting [1] of 1712.
For `CCCOc1ccc2nc(NC(=O)OC)[nH]c2c1` (racemic) [Oxibendazole], under setting [1], the Number of cells is 786.
With `Clc1ccc(CO/N=C(\Cn2ccnc2)c2ccc(Cl)cc2Cl)c(Cl)c1` (racemic) [Oxiconazole nitrate], the Number of cells (50 ng/mL) was 2732.
As to `COc1ccnc(C[S+]([O-])c2nc3ccc(OC(F)F)cc3[nH]2)c1OC` (racemic) [Pantoprazole], the Number of cells under setting [1] amounted to 3112.
In turn, `CC(N)C(O)c1ccccc1` (racemic) [Phenylpropanolamine] yielded a Number of cells under setting [1] of 2551.
`CC(C(=O)O)c1ccc2c(c1)Cc1cccnc1O2` (racemic) [Pranoprofen] displayed a Number of cells (50 ng/mL) of 3050.
In the case of `C[C@]12C=CC(=O)C=C1CC[C@@H]1[C@@H]2[C@@H](O)C[C@@]2(C)[C@H]1CC[C@]2(O)C(=O)CO` (racemic) [Prednisolone], the Number of cells (50 ng/mL) stood at 2900.
Where the note is “50 ng/mL”, `CN1CCCN=C1/C=C/c1cccs1` (racemic) [Pyrantel pamoate] showed a Number of cells of 2985.
Take `CCOC(=O)[C@H](CCc1ccccc1)N[C@@H](C)C(=O)N1Cc2ccccc2C[C@H]1C(=O)O` (racemic) [Quinapril HCl]: the Number of cells was 3149.
For the setting “50 ng/mL”, `O=C(NC(Cc1cc(=O)[nH]c2ccccc12)C(=O)O)c1ccc(Cl)cc1` (racemic) [Rebamipide] yielded a Number of cells of 2922.
Regarding `NC(=O)c1ncn([C@@H]2O[C@H](CO)[C@@H](O)[C@H]2O)n1` (racemic) [Ribavirin], the Number of cells was 3140.
Compound `CCC[S+]([O-])c1ccc2[nH]c(NC(=O)OC)nc2c1` (racemic) [Ricobendazole] had a Number of cells under setting [1] of 1381.
Under “50 ng/mL”, `Clc1ccc(C(Cn2ccnc2)OCc2csc3c(Cl)cccc23)c(Cl)c1` (racemic) [Sertaconazole] showed a Number of cells of 1863.
`C[N+](C)(C)CCOC(=O)CCC(=O)OCC[N+](C)(C)C` (racemic) [Succinylcholine] had a Number of cells under setting [1] of 2727.
Take `COc1cc(NS(=O)(=O)c2ccc(N)cc2)nc(OC)n1` (racemic) [Sulfadimethoxine]: under “50 ng/mL”, the Number of cells was 3092.
The same measure, in the same setting: the value for `COc1ncnc(NS(=O)(=O)c2ccc(N)cc2)c1OC` (racemic) [Sulfadoxine] was 2876.
For `CCCc1nc2c(C)cc(-c3nc4ccccc4n3C)cc2n1Cc1ccc(-c2ccccc2C(=O)O)cc1` (racemic) [Telmisartan], the Number of cells turned out to be 3042.
Take `CN1C(C(=O)Nc2ccccn2)=C(O)c2sccc2S1(=O)=O` (racemic) [Tenoxicam]: the Number of cells (50 ng/mL) is 2916.
Turning to `COc1cc2nc(N3CCN(C(=O)C4CCCO4)CC3)nc(N)c2cc1OC` (racemic) [Terazosin HCl], the Number of cells (50 ng/mL) was determined as 3112.
On the same count and under the same terms, the value for `Clc1ccc(C(Cn2ccnc2)OCc2ccsc2Cl)c(Cl)c1` (racemic) [Tioconazole] was 850.
Take `Cc1c(Cl)cccc1Nc1ccccc1C(=O)O` (racemic) [Tolfenamic acid]: the Number of cells is given as 2697.
The compound `CC[C@@]1(O)C(=O)OCc2c1cc1n(c2=O)Cc2cc3c(CN(C)C)c(O)ccc3nc2-1` (racemic) [Topotecan] returned a Number of cells (50 ng/mL) of 259.
Under “50 ng/mL”, `CN(C)CCOc1ccc(/C(=C(/CCCl)c2ccccc2)c2ccccc2)cc1` (racemic) [Toremifene] registered a Number of cells of 250.
In turn, `NC1CCN(c2nc3c(cc2F)c(=O)c(C(=O)O)cn3-c2ccc(F)cc2F)C1` (racemic) [Tosufloxacin] displayed a Number of cells of 2590.
